The source of these data is patent US20220220068A1 (published 2022).

Structures can show the parent of a compound that is named as a salt.

A word on the melting point: it is the temperature, or range, at which the solid turns liquid.

`CN/C(=N/c1cc(C)c(C(=O)OCc2ccccc2C)cc1C)OC`: the melting point fell in the range of 90 to 92 °C.

As to `CCN(C)/C=N/c1ccc(C(=O)OCc2cccc(C(F)(F)F)c2)c(C)c1C` (as salt: hydrochloride), the melting point is 172 to 176 °C.
